In patent US20160083424A1, “COMPOSITIONS AND METHODS FOR TARGETING ANTIGEN-PRESENTING CELLS” (OSLO UNIVERSITETSSYKEHUS HF, priority 2013, published 2016):

Key:
Type in all cases: cell-based, human
[1] = test system: autologous CD4 or CD8 T cells; experiment: Autologous stimulation of T lymphocytes by DCs exposed to targeted pp65 peptides, [3H] thymidine incorporation; conditions: semi mDCs loaded at 4° C., HLA-A2+/CMV positive donors, 5 days
Protocol: Peptides at a concentration of 5 μg/ml were incubated with semi mDCs from HLA-A2/CMV-positive donors for 60 min at 4° C. Subsequently, they were washed to remove unbound peptides. Autologous stimulation was done in 96-well tissue culture plates in X-vivo 15 medium. Briefly, DCs were mixed with 10^5 autologous CD4 or CD8 T cells at a DC/lymphocytes ratios of 1/5 and 1/10 in a final volume of 250 μl. Cells were incubated for 5 days and then they were pulsed with [^3H] thymidine and harvested 16 h later. [^3H] thymidine incorporation was measured in a β-scintillation counter. In some experiments, the cells were cultured for 8 days and then stained with dextramers specific for pp65 NLVPMVATV (SEQ ID NO:19) epitope.
The capacity of the NW-pp65 fusion peptide (60-mer) to activate T cells from HLA-A2+/CMV positive donors was evaluated. It should be noted that the 48-mer pp65 peptide contains both MHC class I (e.g. NLVPMVATV) (SEQ ID NO:19) and class II (e.g. AGILARNLVPMVATV (SEQ ID NO:23), FFWDANDIYRI (SEQ ID NO:24)) epitopes, allowing the detection of CD4 and CD8 T-cell responses (24-26). […] All cultures were incubated at 37° C. for 5 days and T-cell activation was determined by measuring their proliferation potential (FIG. 6A). […]

[2] = test system: PBMC cultures from CMV-positive donors; experiment: IFN-γ production in PBMC cultures
Protocol: (A) PBMCs from HLA-A2+/CMV-positive donors were incubated with the indicated fusion peptides for 60 min at 4° C., washed and then incubated at 37° C. for […]. T-cell proliferation was monitored by thymidine incorporation. (B) Dextramer staining of CD8 T cells against NLVPMVATV (SEQ ID NO:19) epitope. (C) As in A and B, but monocyte-depleted PBMCs were used. (D) INF-γ and IL-10 levels in PBMC culture supernatants determined by ELISA.
Next, the immunostimulatory potential of the NW-pp65 fusion peptide was evaluated by assessing its ability to stimulate the overall IFN-γ and IL-10 production in PBMC cultures from CMV-positive donors (FIG. 8D).

PBMCs = experiment: Targeted vs spontaneous uptake of pp65 peptides at 37° C., dextramer staining; conditions: PBMCs incubated at 37° C., 12 days, relative to untargeted peptide, particularly at lower peptide concentrations
Protocol: PBMC from HLA-A2/CMV+ donors were thawed, washed and then incubated with the peptides (5 μg/ml) for 60 min at 4° C. Subsequently, the cells were washed twice and then plated at 2×10^5 cells per well in 96-well tissue culture plate. Cells were cultured for 5 days and subsequently they were pulsed with [^3H] thymidine and harvested 16 h later. In some experiments, the cells were cultured for 12 days and then stained with dextramers specific for pp65 NLVPMVATV (SEQ ID NO:19) epitope. Monocyte-depleted PBMCs were also used. To analyze primary immune responses against pp65 protein, PBMCs from HLA-A2+/CMV-negative donors were used. Autologous DCs were incubated with either NW-pp65 or GA-pp65 peptide (5 μg/ml) at 4° C. for 1 h, followed by three washes to remove unbound peptides. Subsequently, the cells were incubated with CD45RO-depleted PBMC (responder cells) and co-cultured for 10 days at ratio 1/10 (DC to responder cells) in X-vivo 15 medium supplemented with 10 ng/ml human IL-7 for 10 days. After 2 rounds of stimulation (8 days each) with autologous DC loaded with peptides, the cells were stained with dextramers specific for pp65 NLVPMVATV (SEQ ID NO:19) epitope. To test spontaneous uptake of peptides by DCs, PBMCs from HLA-A2+/CMV positive donors were incubated at 37° C. with various concentrations of untargeted or targeted pp65 peptide for 90 min. […]

For “NWYLPWLGTNDWGCFTWPPWQAGILARNLVPMVATVQGQNLKYQEFFWDANDIYRIFAEL [NW-60-mer, 48-mer CMV pp65 peptide fused to NW peptide]”, the “T-cell activation (proliferation, [3H]-thymidine)” value [1] was “activated both CD8 and CD4 T cells”, the “total amounts of secreted IFN-γ” value ([2]; ELISA of PBMC culture supernatants, relative to untargeted peptide, n=4) was “significant increase” and the “proportion of CD8 and CD4 T cells that produced IFN-γ” value ([2]; PBMCs from HLA-A2+/CMV positive) was “significant increase”. The “expansion of CD8 T cells after uptake at 37° C.” value (PBMCs) was “significant expansion of CD8 T cells”.
